Test results reported in ChEMBL document CHEMBL1201862, “PubChem BioAssay data set” (2004).
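Briefly, cells in 96-well plates were exposed to five compound concentrations for 48 h, and endpoints were estimated by linear interpolation. The concentration for 50% growth inhibition is given as GI50.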 The source made the active and inactive calls. Rule as the data show it: active = GI50 up to about 1.1 µM and inactive = higher.

Legend:
Test in all cases: growth of human tumour cells (NCI), 48 h
[1] = system: KM-20L2
[2] = system: HOP-18
[3] = system: M19-MEL
[4] = system: DLD-1
[5] = system: SNB-78
[6] = system: RXF 631
[7] = system: XF498
[8] = system: LXFL 529

Row | SMILES | GI50 [1] | GI50 [2] | GI50 [3] | GI50 [4] | GI50 [5] | GI50 [6] | GI50 [7] | GI50 [8]
1 | CCCCOP1(=O)C=C(C)C(=C(Cl)Cl)C(C)=C1 (configuration not stated) | 2.31 µM (inactive) | 22.7 µM (inactive) | 11.5 µM (inactive) | 16.2 µM (inactive) | 0.925 µM (active) | 16.9 µM (inactive) | 13.6 µM (inactive) | –
2 | O=C1NCCS(=O)(=O)N[C@@H](CC2=CC=CCC2)C(=O)N2CCCC12 (some centres not stated) | > 100 µM (inactive) | > 100 µM (inactive) | > 100 µM (inactive) | > 100 µM (inactive) | > 100 µM (inactive) | > 100 µM (inactive) | > 100 µM (inactive) | > 100 µM (inactive)
3 | N#CC1=C(c2ccccc2)NN(Cc2ccccc2)C(c2ccc(Cl)cc2)CC1=O (configuration not stated) | 20.8 µM (inactive) | 17 µM (inactive) | – | 15.7 µM (inactive) | 99.3 µM (inactive) | 28.1 µM (inactive) | 15 µM (inactive) | 20.4 µM (inactive)
4 | CC1(C)COC2(OC1)C1=NS(=O)(=O)CC13CCC2C3(C)C (configuration not stated) | > 100 µM (inactive) | > 100 µM (inactive) | > 100 µM (inactive) | > 100 µM (inactive) | > 100 µM (inactive) | > 100 µM (inactive) | > 100 µM (inactive) | > 100 µM (inactive)
5 | Cc1ccc2[nH]c3c(C)c4c(c(C)c3c2c1)CN(C)C=C4 | 2.18 µM (inactive) | 7.46 µM (inactive) | – | 1.44 µM (inactive) | 0.738 µM (active) | 0.931 µM (active) | 1.25 µM (inactive) | 0.377 µM (active)
